Tests used:
Escherichia coli [1] = test: Antibacterial activity against Escherichia coli MG1655 harboring pGrpE-lux assessed as maximum induction factor at 10^-4 M after 120 mins by luminometric analysis; type: functional, K-12 substr. MG1655
Escherichia coli [2] = test: Antibacterial activity against Escherichia coli MG1655 harboring pIbpA-lux assessed as maximum induction factor at 10^-8 M after 120 mins by luminometric analysis; type: functional, K-12 substr. MG1655
Escherichia coli [3] = test: Antibacterial activity against Escherichia coli MG1655 harboring pColD-lux assessed as maximum induction factor at 10^-8 M after 120 mins by luminometric analysis; type: functional, K-12 substr. MG1655
[4] = Activation of quorum sensing system luxR in Escherichia coli MG1655 harboring pVFR1-lux assessed as maximum induction factor at 10^-6 M after 120 mins by luminometric analysis; conditions: Escherichia coli str. K-12 substr. MG1655
Escherichia coli [5] = test: Antibacterial activity against Escherichia coli MG1655 harboring pIbpA-lux assessed as maximum induction factor at 10^-4 M after 120 mins by luminometric analysis; type: functional, K-12 substr. MG1655
Escherichia coli [6] = test: Antibacterial activity against Escherichia coli MG1655 harboring pKatG-lux assessed as maximum induction factor at 10^-13 M after 120 mins by luminometric analysis; type: functional, K-12 substr. MG1655
[7] = Activation of quorum sensing system luxR in Escherichia coli MG1655 harboring pVFR1-lux assessed as maximum induction factor at 10^-10 M after 120 mins by luminometric analysis; conditions: Escherichia coli str. K-12 substr. MG1655
Escherichia coli [8] = test: Antibacterial activity against Escherichia coli MG1655 harboring pGrpE-lux assessed as maximum induction factor at 10^-10 M after 120 mins by luminometric analysis; type: functional, K-12 substr. MG1655
Escherichia coli [9] = test: Antibacterial activity against Escherichia coli MG1655 harboring pColD-lux assessed as maximum induction factor at 10^-9 M after 120 mins by luminometric analysis; type: functional, K-12 substr. MG1655
Escherichia coli [10] = test: Antibacterial activity against Escherichia coli MG1655 harboring pRecA-lux assessed as maximum induction factor at 10^-12 M after 120 mins by luminometric analysis; type: functional, K-12 substr. MG1655
Escherichia coli [11] = test: Antibacterial activity against Escherichia coli MG1655 harboring pIbpA-lux assessed as maximum induction factor at 10^-3 M after 120 mins by luminometric analysis; type: functional, K-12 substr. MG1655
Escherichia coli [12] = test: Antibacterial activity against Escherichia coli MG1655 harboring pXen7 assessed as toxicity index at 10^-14 M measured for 2 hrs by luminometric analysis; type: functional, K-12 substr. MG1655
Escherichia coli [13] = test: Antibacterial activity against Escherichia coli MG1655 harboring pSoxS-lux assessed as maximum induction factor at 10^-5 M after 120 mins by luminometric analysis; type: functional, K-12 substr. MG1655
Escherichia coli [14] = test: Antibacterial activity against Escherichia coli MG1655 harboring pXen7 assessed as toxicity index at 10^-10 M measured for 2 hrs by luminometric analysis; type: functional, K-12 substr. MG1655
Escherichia coli [15] = test: Antibacterial activity against Escherichia coli MG1655 harboring pKatG-lux assessed as maximum induction factor at 10^-11 M after 120 mins by luminometric analysis; type: functional, K-12 substr. MG1655
Escherichia coli [16] = test: Antibacterial activity against Escherichia coli MG1655 harboring pRecA-lux assessed as maximum induction factor at 10^-11 M after 120 mins by luminometric analysis; type: functional, K-12 substr. MG1655
Escherichia coli [17] = test: Antibacterial activity against Escherichia coli MG1655 harboring pRecA-lux assessed as maximum induction factor at 10^-8 M after 120 mins by luminometric analysis; type: functional, K-12 substr. MG1655
Escherichia coli [18] = test: Antibacterial activity against Escherichia coli MG1655 harboring pXen7 assessed as toxicity index at 10^-12 M measured for 2 hrs by luminometric analysis; type: functional, K-12 substr. MG1655
Escherichia coli [19] = test: Antibacterial activity against Escherichia coli MG1655 harboring pSoxS-lux assessed as maximum induction factor at 10^-11 M after 120 mins by luminometric analysis; type: functional, K-12 substr. MG1655
Escherichia coli [20] = test: Antibacterial activity against Escherichia coli MG1655 harboring pKatG-lux assessed as maximum induction factor at 10^-12 M after 120 mins by luminometric analysis; type: functional, K-12 substr. MG1655
Escherichia coli [21] = test: Antibacterial activity against Escherichia coli MG1655 harboring pSoxS-lux assessed as maximum induction factor at 10^-14 M after 120 mins by luminometric analysis; type: functional, K-12 substr. MG1655
Escherichia coli [22] = test: Antibacterial activity against Escherichia coli MG1655 harboring pSoxS-lux assessed as maximum induction factor at 10^-12 M after 120 mins by luminometric analysis; type: functional, K-12 substr. MG1655
Vibrio sp. [23] = test: Antibacterial activity against Vibrio aqamarinus VKPM B-11245 assessed as toxicity index at 10^-7 M measured for 2 hrs by luminometric analysis; type: functional
Vibrio sp. [24] = test: Antibacterial activity against Vibrio aqamarinus VKPM B-11245 assessed as toxicity index at 10^-14 M measured for 2 hrs by luminometric analysis; type: functional
Escherichia coli [25] = test: Antibacterial activity against Escherichia coli MG1655 harboring pGrpE-lux assessed as maximum induction factor at 10^-11 M after 120 mins by luminometric analysis; type: functional, K-12 substr. MG1655
Escherichia coli [26] = test: Antibacterial activity against Escherichia coli MG1655 harboring pXen7 assessed as toxicity index at 10^-7 M measured for 2 hrs by luminometric analysis; type: functional, K-12 substr. MG1655
Escherichia coli [27] = test: Antibacterial activity against Escherichia coli MG1655 harboring pXen7 assessed as toxicity index at 10^-11 M measured for 2 hrs by luminometric analysis; type: functional, K-12 substr. MG1655
Escherichia coli [28] = test: Antibacterial activity against Escherichia coli MG1655 harboring pRecA-lux assessed as maximum induction factor at 10^-9 M after 120 mins by luminometric analysis; type: functional, K-12 substr. MG1655
Escherichia coli [29] = test: Antibacterial activity against Escherichia coli MG1655 harboring pKatG-lux assessed as maximum induction factor at 10^-6 M after 120 mins by luminometric analysis; type: functional, K-12 substr. MG1655
Escherichia coli [30] = test: Antibacterial activity against Escherichia coli MG1655 harboring pGrpE-lux assessed as maximum induction factor at 10^-6 M after 120 mins by luminometric analysis; type: functional, K-12 substr. MG1655
Escherichia coli [31] = test: Antibacterial activity against Escherichia coli MG1655 harboring pKatG-lux assessed as maximum induction factor at 10^-9 M after 120 mins by luminometric analysis; type: functional, K-12 substr. MG1655
Escherichia coli [32] = test: Antibacterial activity against Escherichia coli MG1655 harboring pColD-lux assessed as maximum induction factor at 10^-12 M after 120 mins by luminometric analysis; type: functional, K-12 substr. MG1655
Escherichia coli [33] = test: Antibacterial activity against Escherichia coli MG1655 harboring pKatG-lux assessed as maximum induction factor at 10^-7 M after 120 mins by luminometric analysis; type: functional, K-12 substr. MG1655
[34] = Activation of quorum sensing system luxR in Escherichia coli MG1655 harboring pVFR1-lux assessed as maximum induction factor at 10^-13 M after 120 mins by luminometric analysis; conditions: Escherichia coli str. K-12 substr. MG1655
Escherichia coli [35] = test: Antibacterial activity against Escherichia coli MG1655 harboring pIbpA-lux assessed as maximum induction factor at 10^-7 M after 120 mins by luminometric analysis; type: functional, K-12 substr. MG1655
[36] = Activation of quorum sensing system luxR in Escherichia coli MG1655 harboring pVFR1-lux assessed as maximum induction factor at 10^-8 M after 120 mins by luminometric analysis; conditions: Escherichia coli str. K-12 substr. MG1655
Escherichia coli [37] = test: Antibacterial activity against Escherichia coli MG1655 harboring pSoxS-lux assessed as maximum induction factor at 10^-3 M after 120 mins by luminometric analysis; type: functional, K-12 substr. MG1655
Escherichia coli [38] = test: Antibacterial activity against Escherichia coli MG1655 harboring pGrpE-lux assessed as maximum induction factor at 10^-5 M after 120 mins by luminometric analysis; type: functional, K-12 substr. MG1655
Escherichia coli [39] = test: Antibacterial activity against Escherichia coli MG1655 harboring pIbpA-lux assessed as maximum induction factor at 10^-5 M after 120 mins by luminometric analysis; type: functional, K-12 substr. MG1655

## O=[N+]([O-])c1cc([N+](=O)[O-])c2no[n+]([O-])c2c1Sc1nc2ccccc2s1
Escherichia coli [1]
  Activity: 0.51
Escherichia coli [2]
  Activity: 1.18
Escherichia coli [3]
  Activity: 1.08
[4]
  Activity: 3.03
Escherichia coli [5]
  Activity: 0.63
Escherichia coli [6]
  Activity: 0.87
[7]
  Activity: 3.59
Escherichia coli [8]
  Activity: 1.15
Escherichia coli [9]
  Activity: 1.05
Escherichia coli [10]
  Activity: 0.94
Escherichia coli [11]
  Activity: 1.19
Escherichia coli [12]
  Activity: 2.74
Escherichia coli [13]
  Activity: 0.99
Escherichia coli [14]
  Activity: 3.82
Escherichia coli [15]
  Activity: 1.03
Escherichia coli [16]
  Activity: 1.03
Escherichia coli [17]
  Activity: 0.99
Escherichia coli [18]
  Activity: 10.52
Escherichia coli [19]
  Activity: 0.99
Escherichia coli [20]
  Activity: 1.12
Escherichia coli [21]
  Activity: 1.2
Escherichia coli [22]
  Activity: 1.41
Vibrio sp. [23]
  Activity: 22.52
Vibrio sp. [24]
  Activity: 5.94
Escherichia coli [25]
  Activity: 1.05
Escherichia coli [26]
  Activity: 0
Escherichia coli [27]
  Activity: 0
Escherichia coli [28]
  Activity: 1.02
Escherichia coli [29]
  Activity: 0.8
Escherichia coli [30]
  Activity: 1.15
Escherichia coli [31]
  Activity: 0.96
Escherichia coli [32]
  Activity: 1.1
Escherichia coli [33]
  Activity: 0.91
[34]
  Activity: 1.77
Escherichia coli [35]
  Activity: 1.12
[36]
  Activity: 2.77
Escherichia coli [37]
  Activity: 1.8
Escherichia coli [38]
  Activity: 0.88
Escherichia coli [39]
  Activity: 1.08
